Data from patent US20220160703A1, “TUMOR-SELECTIVE COMBINATION THERAPY” (The Board of Regents of The University of Texas System, priority 2019, published 2022).

System: MC38 tumor
Assay: MC38 subcutaneous syngeneic tumor model
Type: in vivo, mice
Method: (FIG. 1A) NQO1 positive tumor cell lines MC38, TC-1 and Ag104Ld and NQO1 negative cell lines Panc02 and B16 grown in 48-well plates were treated with β-lap (0-8 μM) for a 3 hr followed by washing and replacing medium. Cell viability was determined by Sulforhodamine B (SRB) Assay 4 days later. […] (FIG. 1C) MC38 cells with CRISPR-based NQO1 Knockout (MC38 NQO1KO #5) planted in 96-well plates were exposed to β-lap for 3 hr and cell survival was assessed 48 hr later. […] (FIG. 1E) MC38 cells were exposed to a lethal dose of β-lap (4 μM) for indicated times, then stained with 7-AAD and Annexin V followed by flow cytometry analysis. […] (FIG. 1H) MC38 and B16 NQO1 #1 cells were exposed to β-lap for a 3 hr. Catalase (1000 U/ml) was added and cell survival was assessed 48 hr later. (FIG. 1I) C57BL/6 mice (n=5/group) were transplanted with MC38 cells and treated with β-lap (0.03 mg, 0.1 mg or 0.3 mg, intratumorally; or 25 mg/kg, i.v.) every other day for four times. (FIG. 1J) C57BL/6 mice were transplanted with MC38 cells (NQO1 WT or KO, n=5/group) and treated with β-lap (0.3 mg, i.t.) every other day for four times. Tumor growth was monitored twice a week.
(FIG. 2A) MC38 cells were subcutaneously transplanted into C57BL/6 WT (n=5-6/group) and Rag1 KO mice (n=5/group), respectively. Tumor bearing mice were treated with β-lap (0.3 mg, i.t.) every other day for four times. […] (FIG. 2B) MC38 tumor bearing C57BL/6 mice (n=5/group) were treated with β-lap (0.3 mg, i.t.) every other day for four times. For CD8^+ T cell depletion, 200 μg of anti-CD8 antibodies were intraperitoneally injected four times at three days interval during the treatment. (FIG. 2C) TC-1 tumor bearing C57BL/6 mice (n=4-5/group) were treated with β-lap (0.1 mg, i.t.) for four times with or without anti-CD8 antibodies. […] (FIG. 2E) 2×10^6 A549 cells were subcutaneously injected into C57BL/6 Rag1^−/− mice (n=5/group for vehicle and β-lap; n=7/group for vehicle+OT-1 and β-lap+OT-1). 30 days later, the mice were i.v. adoptively transfected with 2×10^6 lymph node cells from OT-1 transgenic mice. On the following day, tumor-bearing mice were intratumorally treated with β-lap (0.2 mg) every other day for 4 times. (FIG. 2F) A549 cells were subcutaneously injected into NSG-SGM3 (n=5/group) or NSG-SGM3 harboring human CD34^+ hematopoietic stem cells (n=5/group for Hu-NSG vehicle; n=6/group for Hu-NSG β-lap). Tumor bearing mice were treated with β-lap (0.2 mg, i.t.) every other day for four times. Tumor growth was measured twice a week.
(FIG. 6A) Treatment schema for local β-lap treatment based combinative therapy in FIG. 6B and FIG. 6C. (FIGS. 6B-C) MC38 tumor cells were s.c. inoculated into the flank of C57BL/6 mice (n=5/group). Mice bearing small tumor (about 50 mm^3, B) or advanced tumor (about 150-200 mm^3, FIG. 6C) were locally treated with β-lap (0.3 mg, i.t.) for four times with or without anti-PD-L1 based checkpoint blockage.

For `CC1(C)CCC2=C(O1)c1ccccc1C(=O)C2=O` [β-lap, β-lapachone], the “re-challenge of cured mice” value (3×10^6 MC38 cells, 30 days after complete rejection) was “rejected the re-challenged tumors”, the “therapeutic activity in immune-deficient mice” value (Rag1 KO C57BL/6 mice, 0.3 mg i.t. four times) was “lost therapeutic activity” and the TGI (large established tumors (about 150-200 mm^3), β-lap 15 mg/kg i.t. four times, anti-PD-L1 100 μg i.p. three times) was 59.36%. The “Tumor growth inhibition rate (TGI)” value (local (intratumoral) β-lap 1.5 mg/kg mg, every other day 4 doses) was 11.8%, the “Tumor growth inhibition rate (TGI)” value (local (intratumoral) β-lap 5 mg/kg, every other day 4 doses) was 69.4% and the “Tumor growth inhibition rate (TGI)” value (local (intratumoral) β-lap 15 mg/kg mg, every other day 4 doses) was 89.3%. The “Tumor growth inhibition rate (TGI)” value (systemic β-lap 25 mg/kg i.v., every other day four times) was 62.5%, the “antitumor effect with CD8+ T cell depletion” value (β-lap 0.3 mg i.t. + anti-CD8 200 μg) was “abolished β-lap's antitumor effect” and the “response with macrophage depletion” value (β-lap 0.3 mg i.t. + anti-CSF1R Ab 100 μg i.t.) was “did not affect the response”. The “therapeutic effect with type I IFN blockade” value (β-lap 0.3 mg i.t. + anti-IFNAR1 150 μg i.t.) was “significantly diminished the therapeutic effect”, the “therapeutic effect in Batf3−/− mice” value (β-lap 0.3 mg i.t. four times) was “no therapeutic effect” and the “tumor regression in Myd88−/− mice” value (β-lap 0.3 mg i.t. four times) was “disappeared”.
